Reference: patent publication US20170356126A1, “LIQUID FILM CLEAVAGE AGENT” (Kao Corporation, priority 2014, published 2017)

Description: Further, the water solubility is considered to be applied also to menstrual blood, urine or the like which contains water as a main component.
Specifically, the agent is added for every 0.0001 g, and the measurement is performed.
These numerical values were measured by the above-mentioned measuring method. […] Moreover, the water solubility was measured by adding the agent for every 0.0001 g.

## dimethyl silicone oil [Comparative Example 2, reference compound]
  Water solubility of the above agent: 0.0001 g
